Measurements reported in patent publication US20220280493A1 (priority 2021, published 2022).

Tests used:
[1] = system: "Long-Haul" Covid-19; experiment: Treatment of "Long-Haul" Covid-19 symptoms in the same patient; format: in vivo, human; details: for effect of added direct intranasal/lung inhalation: 0.1 ml of the 6% solution, 1-2 times/day
Protocol: After patient had discontinued treatment above for several weeks after the first round of disease, subsequent putative recurrent post-acute (“long-haul”) symptoms of Covid-19. These included malaise, fatigue, brain fog, myalgia and musculoskeletal pain, and shortness of breath. […] Treatment was titrated to a clinical response, with a maximum dose of 200 mg/day of Tempol. […] At two such interludes, in place of the Tempol, patient took 100 mg of phenylbutylnitrone (PBN).

[2] = system: Covid-19, Omicron strain; experiment: Treatment of "Break-Thru" Covid-19 infection in the same patient; format: in vivo, human
[3] = system: nonrespiratory coronavirus unrelated to SARS-CoV-2; details: induced by a nonrespiratory coronavirus; cited from earlier work

Structure (SMILES)	effect of added direct intranasal/lung inhalation [1]	alleviation of upper respiratory symptoms, alternative intranasal treatments ([2]; intranasal 3% gel (Q-tip) or insufflation of 0.2 ml of 3% solution, compared with 6% Tempol spray)	long-haul symptoms, oral treatment in place of Tempol ([1]; 100 mg, at two interludes)	long-haul symptoms, nasal/pulmonary inhalation ([1]; 0.1 ml of a 5% solution in water 3-4 times per day)	time to alleviation of upper respiratory tract congestion ([2]; inhalation of 20 mg, one 0.1 ml spritz of the 6% solution per nostril, followed by insufflation)	response of long-haul symptoms (malaise, fatigue, brain fog, myalgia and musculoskeletal pain, shortness of breath) ([1]; human, in vivo)	symptoms on withdrawal and repeat treatment ([1]; treatment withdrawn, then repeated)	murine viral encephalomyelitis [3]
CC1(C)CC(O)CC(C)(C)N1O [Tempol-H, the hydroxylamine reduced form of the nitroxide 4-hydroxy-2,2,6,6-tetramethylpiperidin-1-yloxy]	proved helpful	–	–	–	–	–	–	–
CC(C)(C)[N+]([O-])=Cc1ccccc1 [PBN, 1-alpha-phenyl-tert-butyl nitrone]	–	effective but the response was slower	some subjective clearing of symptoms	significant symptomatic relief	–	–	–	–
CC1(C)CC(O)CC(C)(C)N1[O] [Tempol, 4-hydroxy-TEMPO]	proved helpful	–	–	–	5 to 10 min	responded reversibly	Symptoms returned when the treatment was withdrawn, but responded to repeat treatment	ameliorates
